Results as given in patent publication US20240209028A1, “CNP COMPOUNDS” (priority 2022, published 2024).
Read-outs that look alike come from different tables or passages of the source. Starred links: 1 amine or outer side, 2 acyl side, 3 side chain; linkers in the order of their positions; H or OH if unused. Positions of bridges follow the written chain, without caps; N, C: chain ends. Residues, ends and D or L forms follow the SMILES beside them. *: point of attachment. C18 diacid = O=C(O)CCCCCCCCCCCCCCCCC(=O)*; γGlu = O=C(O)[C@H](CCC(=O)[*:2])N[*:1]; AEEA = NCCOCCOCC(=O)O

Assay: PK of CNP compounds after i.v. and s.c. administration to rats
Conditions: male, Sprague Dawley, rat, in vivo
Method: In order to assess the i.v. and s.c. PK/PD profile of CNP compounds of the present invention, formulations of CNP compounds were administered to rats, blood samples taken and exposure and cGMP response measured.
Quantitative plasma analysis of CNP-compounds: Plasma concentrations of CNP compounds were assayed by plasma protein precipitation and analysed by turboflow liquid chromatography mass spectrometry (TF-LC-MS). Calibrators were prepared by spiking either blank rat or minipig plasma with the relevant CNP compound in the range from 0.5 to 2000 nM. Calibrators, plasma blanks or study samples were prepared for TF-LC-MS by protein precipitation by adding three or four volumes of either ethanol or methanol containing 20 nM of internal standard to one volume of sample. For some compounds, formic acid was added to the precipitation reagent (the final concentration was 1% v/v). After the addition of the precipitation reagent, the mixture was centrifuged at 6200 rpm at 4° C. for 30 minutes. After centrifugation, one volume of supernatant was mixed with two volumes of water (with 1% v/v formic acid). The mixture was analysed by TF-LC-MS using a Cyclone turboflow column (0.5×50 mm, ThermoFisher Scientific) and either a XBridge Protein BEH C4 3.5 μm 300 Åor a XBridge Protein BEH C18 3.5 μm 130 Åanalytical column (both were 50×2.1 mm and obtained from Waters). […] The mass spectrometer was operated in positive ionisation mode. A TSQ Altis mass spectrometer (ThermoFisher Scientific) was used as detector in selected reaction monitoring mode (specific transition were optimised for each CNP compound). Linear calibration curves (weighed 1/×2) were used for calculating the concentration in the plasma samples. Quality control samples were included. The deviation between nominal and calculated concentration in the calibrators and quality control samples were below 15%.
Animals and dosing: Groups of 4-6 rats (male, Sprague Dawley, 350 g at arrival, Janvier, France) per compound and route of administration were dosed with a CNP compound formulated either in A) 8 mM sodium phosphate, 250 mM glycerol, 0.007% polysorbate 20, pH 7.4 or B) 5 mM sodium acetate, 250 mM glycerol, 0.007% polysorbate 20, pH 4.0 depending on the respective compound. S.c. dose was 300 nmol/kg, at a concentration of […] resulting in a dosing volume of 0.3 mL/kg, whereas i.v. dose was 100 nmol/kg, at a concentration of […] resulting in a dosing volume of 1 mL/kg.
Sampling: Sublingual blood samples of 250 uL were collected from unanaesthetised rats in EDTA-coated vials (Microvette 600K3E ref #15.1673.100 Sarstedt) at baseline (-1 h before dosing) as well as 5 min (only i.v. dosed groups), 2 h, 6 h, 24 h, 48 h and 72 h (only for exposure analysis) post-dosing. The blood samples were quickly stored on ice and centrifuged (4° C., 8000 RPM, 5 min) within 10 min of collection. Plasma samples of 50 μL were transferred to each micronic tube for either exposure or cGMP analysis, kept on dry ice and stored in a freezer (−20° C.). Rats had access to food (Altromin) and tap water ad libitum.
Analysis: PK parameters were calculated by non-compartment analysis (NCA) using software Phoenix WinNonlin (ver. 8.1 or later, Certara) for each animal. Clearance (Cl) was calculated as: Dose/AUCinf (linear up, log down). […] Bioavailability was calculated as dose normalized AUC's: (AUC(sc)/Dose(sc))/(AUC(iv)/Dose(iv)). Values in the table are means from individual animals (n=4-6 individual animals). The subsequent plots for cGMP plasma concentration versus time are (Y-axis) mean cGMP concentration (n=4-6 individual animals) after IV dosing and (X-axis) nominal plasma sampling time.
Plasma cGMP are reported as the mean.

[1] = iv, i.v., about 100 nmol/kg, read-out: Cl (L/hr/kg), i.v. administration (converted)
[2] = iv, i.v., about 100 nmol/kg, read-out: T½ (hr), i.v. administration (converted)
[3] = sc, s.c. bioavailability, about 300 nmol/kg, read-out: F (%), s.c. administration
[4] = sc, s.c., about 300 nmol/kg, read-out: T½ (hr), s.c. administration (converted)

**Q.** With CC[C@H](C)[C@@H]1NC(=O)[C@H](CCCNC(=N)N)NC(=O)[C@H](CCC(=O)O)NC(=O)[C@H](CC(C)C)NC(=O)[C@H](CCCCN)NC(=O)[C@H](CC(C)C)NC(=O)CNC(=O)[C@H](Cc2ccccc2)NC(=O)[C@@H](NC(=O)CNC(=O)[C@H](CCCCN)NC(=O)[C@H](CO)NC(=O)[C@H](CC(C)C)NC(=O)CNC(=O)[C@H](CCCCN)NC(=O)[C@H](CCCCN)NC(=O)[C@H](CCC(N)=O)NC(=O)[C@H](C)NC(=O)CNC(=O)[C@H](CCCCN)NC(=O)[C@H](Cc2ccc(O)cc2)NC(=O)[C@H](CCCCN)NC(=O)[C@H](CCCNC(=N)N)NC(=O)[C@H](C)NC(=O)COCCOCCNC(=O)COCCOCCNC(=O)CC[C@H](NC(=O)CCCCCCCCCCCCCCCCC(=O)O)C(=O)O)CSSC[C@@H](C(=O)O)NC(=O)CNC(=O)[C@H](CC(C)C)NC(=O)CNC(=O)[C@H](CO)NC(=O)[C@H](CC(C)C)NC(=O)[C@H](CO)NC(=O)CNC1=O [compound 0776] ({C18 diacid-γGlu-AEEA-AEEA}-ARKYKGAQKKGLSKGCFGLKLERIGSLSGLGC-OH; disulfide 16-32) as the molecule, how does the clearance (iv, 100 nmol/kg) read?
**A.** 0.00613 L/h/kg

**Q.** And the half-life (iv, 100 nmol/kg)?
**A.** 10.7 h

**Q.** And the bioavailability (sc, 300 nmol/kg)?
**A.** 7.35%

**Q.** What about the half-life (sc, 300 nmol/kg) of the same molecule?
**A.** 5.63 h

**Q.** With CC[C@H](C)[C@@H]1NC(=O)[C@H](CCCNC(=N)N)NC(=O)[C@H](CC(=O)O)NC(=O)[C@H](CC(C)C)NC(=O)[C@@H]2CCCN2C(=O)[C@H](CC(C)C)NC(=O)CNC(=O)[C@H](Cc2ccccc2)NC(=O)[C@@H](NC(=O)CNC(=O)[C@H](CCCCN)NC(=O)[C@H](CO)NC(=O)[C@H](CC(C)C)NC(=O)CNC(=O)[C@H](CCCCN)NC(=O)[C@H](CCCCN)NC(=O)[C@H](CCC(N)=O)NC(=O)[C@H](C)NC(=O)CNC(=O)[C@H](CCC(=O)O)NC(=O)[C@H](Cc2ccc(O)cc2)NC(=O)COCCOCCNC(=O)COCCOCCNC(=O)CC[C@H](NC(=O)CCCCCCCCCCCCCCCCC(=O)O)C(=O)O)CSSC[C@@H](C(=O)O)NC(=O)CNC(=O)[C@H](CC(C)C)NC(=O)CNC(=O)[C@H](CO)NC(=O)[C@H](CC(C)C)NC(=O)[C@H](CO)NC(=O)CNC1=O [compound 1225] ({C18 diacid-γGlu-AEEA-AEEA}-YEGAQKKGLSKGCFGLPLDRIGSLSGLGC-OH; disulfide 13-29) as the molecule, how does the clearance [1] read?
**A.** 0.0103 L/h/kg

**Q.** And the half-life [2]?
**A.** 5.03 h

**Q.** And the bioavailability [3]?
**A.** 61.2%

**Q.** What about the half-life [4] of the same molecule?
**A.** 5.1 h

**Q.** For CC[C@H](C)[C@@H]1NC(=O)[C@H](CCCNC(=N)N)NC(=O)[C@H](CC(=O)O)NC(=O)[C@H](CC(C)C)NC(=O)[C@@H]2CCCN2C(=O)[C@H](CC(C)C)NC(=O)CNC(=O)[C@H](Cc2ccccc2)NC(=O)[C@@H](NC(=O)CNC(=O)[C@H](CO)NC(=O)[C@H](CO)NC(=O)[C@H](CC(C)C)NC(=O)CNC(=O)[C@H](CCCCN)NC(=O)[C@H](CCCCN)NC(=O)[C@H](CCC(N)=O)NC(=O)[C@H](C)NC(=O)CNC(=O)[C@H](CCC(=O)O)NC(=O)[C@H](Cc2ccc(O)cc2)NC(=O)COCCOCCNC(=O)COCCOCCNC(=O)CC[C@H](NC(=O)CCCCCCCCCCCCCCCCC(=O)O)C(=O)O)CSSC[C@@H](C(=O)O)NC(=O)CNC(=O)[C@H](CC(C)C)NC(=O)CNC(=O)[C@H](CO)NC(=O)[C@H](CC(C)C)NC(=O)[C@H](CO)NC(=O)CNC1=O [compound 1227] ({C18 diacid-γGlu-AEEA-AEEA}-YEGAQKKGLSSGCFGLPLDRIGSLSGLGC-OH; disulfide 13-29), which clearance [1] is on record?
**A.** 0.0168 L/h/kg

**Q.** And the half-life [2]?
**A.** 3.56 h

**Q.** Which clearance [1] does the source give for CC[C@H](C)[C@@H]1NC(=O)[C@H](CCCNC(=N)N)NC(=O)[C@H](CC(=O)O)NC(=O)[C@H](CC(C)C)NC(=O)[C@@H]2CCCN2C(=O)[C@H](CC(C)C)NC(=O)CNC(=O)[C@H](Cc2ccccc2)NC(=O)[C@@H](NC(=O)CNC(=O)[C@H](CO)NC(=O)[C@H](CO)NC(=O)[C@H](CC(C)C)NC(=O)CNC(=O)[C@H](CCCCN)NC(=O)[C@H](CCCCN)NC(=O)[C@H](CCC(N)=O)NC(=O)[C@H](C)NC(=O)CNC(=O)[C@H](CCCCN)NC(=O)[C@H](Cc2ccc(O)cc2)NC(=O)COCCOCCNC(=O)COCCOCCNC(=O)CC[C@H](NC(=O)CCCCCCCCCCCCCCCCC(=O)O)C(=O)O)CSSC[C@@H](C(=O)O)NC(=O)CNC(=O)[C@H](CC(C)C)NC(=O)CNC(=O)[C@H](CO)NC(=O)[C@H](CC(C)C)NC(=O)[C@H](CO)NC(=O)CNC1=O [compound 1233] ({C18 diacid-γGlu-AEEA-AEEA}-YKGAQKKGLSSGCFGLPLDRIGSLSGLGC-OH; disulfide 13-29) here?
**A.** 0.0246 L/h/kg

**Q.** And the half-life [2]?
**A.** 1.42 h

**Q.** And the bioavailability [3]?
**A.** 33.8%

**Q.** What about the half-life [4] of the same molecule?
**A.** 3.57 h

**Q.** For CC[C@H](C)[C@@H]1NC(=O)[C@H](CCCNC(=N)N)NC(=O)[C@H](CC(=O)O)NC(=O)[C@H](CC(C)C)NC(=O)[C@H](CCCCN)NC(=O)[C@H](CC(C)C)NC(=O)CNC(=O)[C@H](Cc2ccccc2)NC(=O)[C@@H](NC(=O)CNC(=O)[C@H](CCCCN)NC(=O)[C@H](CO)NC(=O)[C@H](CC(C)C)NC(=O)CNC(=O)[C@H](CCCCN)NC(=O)[C@H](CCCCN)NC(=O)[C@H](CCC(N)=O)NC(=O)[C@H](C)NC(=O)CNC(=O)[C@H](Cc2c[nH]cn2)NC(=O)[C@H](CCC(=O)O)NC(=O)COCCOCCNC(=O)COCCOCCNC(=O)CC[C@H](NC(=O)CCCCCCCCCCCCCCCCC(=O)O)C(=O)O)CSSC[C@@H](C(=O)O)NC(=O)CNC(=O)[C@H](CC(C)C)NC(=O)CNC(=O)[C@H](CO)NC(=O)[C@H](CC(C)C)NC(=O)[C@H](CO)NC(=O)CNC1=O [compound 1235], which clearance (iv, 100 nmol/kg) is on record?
**A.** 0.0115 L/h/kg

**Q.** What about the half-life (iv, 100 nmol/kg) of the same molecule?
**A.** 6.2 h

**Q.** What about the bioavailability (sc, 300 nmol/kg) of the same molecule?
**A.** 65.8%

**Q.** And the half-life (sc, 300 nmol/kg)?
**A.** 6.28 h

**Q.** For CC[C@H](C)[C@@H]1NC(=O)[C@H](CCCNC(=N)N)NC(=O)[C@H](CC(=O)O)NC(=O)[C@H](CC(C)C)NC(=O)[C@@H]2CCCN2C(=O)[C@H](CC(C)C)NC(=O)CNC(=O)[C@H](Cc2ccccc2)NC(=O)[C@@H](NC(=O)CNC(=O)[C@H](CO)NC(=O)[C@H](CO)NC(=O)[C@H](CC(C)C)NC(=O)CNC(=O)[C@H](CCCCN)NC(=O)[C@H](CCCCN)NC(=O)[C@H](CCC(N)=O)NC(=O)[C@H](C)NC(=O)CNC(=O)[C@H](Cc2c[nH]cn2)NC(=O)[C@H](Cc2ccc(O)cc2)NC(=O)COCCOCCNC(=O)COCCOCCNC(=O)CC[C@H](NC(=O)CCCCCCCCCCCCCCCCC(=O)O)C(=O)O)CSSC[C@@H](C(=O)O)NC(=O)CNC(=O)[C@H](CC(C)C)NC(=O)CNC(=O)[C@H](CO)NC(=O)[C@H](CC(C)C)NC(=O)[C@H](CO)NC(=O)CNC1=O [compound 1241] ({C18 diacid-γGlu-AEEA-AEEA}-YHGAQKKGLSSGCFGLPLDRIGSLSGLGC-OH; disulfide 13-29), which clearance [1] is on record?
**A.** 0.0164 L/h/kg

**Q.** And the half-life [2]?
**A.** 2.78 h

**Q.** With CC[C@H](C)[C@@H]1NC(=O)[C@H](CCCNC(=N)N)NC(=O)[C@H](CC(=O)O)NC(=O)[C@H](CC(C)C)NC(=O)[C@@H]2CCCN2C(=O)[C@H](CC(C)C)NC(=O)CNC(=O)[C@H](Cc2ccccc2)NC(=O)[C@@H](NC(=O)CNC(=O)[C@H](CO)NC(=O)[C@H](CO)NC(=O)[C@@H](NC(=O)CNC(=O)[C@@H](NC(=O)[C@H](CCCCN)NC(=O)[C@H](CCC(N)=O)NC(=O)[C@H](C)NC(=O)CNC(=O)[C@H](Cc2c[nH]cn2)NC(=O)[C@H](Cc2ccc(O)cc2)NC(=O)[C@H](CCCCN)NC(=O)[C@H](CCCNC(=N)N)NC(=O)[C@H](C)NC(=O)COCCOCCNC(=O)COCCOCCNC(=O)CC[C@H](NC(=O)CC[C@H](NC(=O)CCCCCCCCCCCCCCCCC(=O)O)C(=O)O)C(=O)O)[C@@H](C)O)C(C)C)CSSC[C@@H](C(=O)O)NC(=O)CNC(=O)[C@H](CC(C)C)NC(=O)CNC(=O)[C@H](CO)NC(=O)[C@H](CC(C)C)NC(=O)[C@H](CO)NC(=O)CNC1=O [compound 1354] ({C18 diacid-γGlu-γGlu-AEEA-AEEA}-ARKYHGAQKTGVSSGCFGLPLDRIGSLSGLGC-OH; disulfide 16-32) as the molecule, how does the clearance [1] read?
**A.** 0.00652 L/h/kg

**Q.** And the half-life [2]?
**A.** 7.56 h
